Data: patent US20240261333A1, “NOVEL TARGETS FOR ENHANCING ANTI-TUMOR IMMUNITY” (THE BROAD INSTITUTE, INC., priority 2021, published 2024)

What was measured:
Format in all cases: cell-based, human
[1] = test system: A375 cells overexpressing B3GNT2; assay: Intra- and extra-cellular poly-LacNAc by tomato lectin staining, flow cytometry; conditions: A375 overexpressing B3GNT2, pretreated with different concentrations of inhibitor
Description: For glycosylation inhibition, cells were treated with 20 μg/mL Kifunensine (Cayman Chemical 10009437) or 2 mM Benzyl 2-acetamido-2-deoxy-alpha-D-galactopyranoside (BAG; Millipore Sigma B4894-100MG) for 48 h to inhibit N- and O-glycosylation respectively unless otherwise indicated. For MCL1 inhibition, cells were treated with 1-10 μM of S63845 (Selleck Chemicals S8383) or AZD5991 (Selleck Chemicals S8643) for 4 h before incubation with T cells. Both glycosylation and MCL1 inhibitors were maintained at indicated concentrations during co-culture with T cells.
Per condition, 5×10^5 cells were pelleted at 200×g for 5 min and washed once with PBS. Cell were fixed in 4% Formaldehyde in PBS at 4° C. for 10 mins. […] For each sample, 10,000 cells were analyzed on a CytoFLEX Flow Cytometer (Beckman Coulter) and quantified with FlowJo (FlowJo). For each experiment, median fluorescence values for 3 biological replicates were compared to determine statistical significance.

[2] = test system: SW1417 (HER2+) colorectal adenocarcinoma cells; assay: T cell cytotoxicity assay, SW1417 against HER2 CAR T cells; conditions: SW1417 treated with small molecule inhibitor
Description: (§1) Expanded T cells were thawed and maintained in culture media for 8-10 h before incubation with cancer cells. Cancer cells were seeded in 96-well plates and allowed to attach for 3-4 h before T cells were added at the appropriate effector to target cell (E:T) ratio. Paired controls with no T cells added were included for each condition. After 18 h, cancer cells were washed twice with PBS to remove T cells, passaged, and cultured for 2 days. Primary patient-derived cell models were not passaged after T cell co-culture. Viability was measured using CellTiter-Glo (Promega G7571). For each E:T ratio, percent survival was calculated as viability of the cells incubated with T cells divided by viability of the paired control that was not incubated with T cells. For example, CD274-overexpressing melanoma cells that were co-cultured with ESO T cells were compared to CD274-overexpressing melanoma cells that were cultured without T cells in parallel. As an alternative cytotoxicity assay, A375 cells stably expressing Gaussia luciferase were co-cultured with ESO T cells. At each time point, 10% of cell culture media was used for the Gaussia luciferase assay (Targeting Systems GAR-2B) to directly measure cytotoxicity. […]

[3] = test system: CCLF_PANC_0014_T primary patient-derived pancreatic adenocarcinoma; assay: T cell cytotoxicity assay, primary patient-derived pancreatic adenocarcinoma against HER2 CAR T cells; conditions: CCLF_PANC_0014_T treated with small molecule inhibitor
Description: as §1

O=C1N[C@@H]2[C@@H](O)[C@@H](O)[C@H](O)[C@@H](CO)N2C1=O [kifunensine]
poly-LacNAc measured by tomato lectin staining [1]: reduced poly-LacNAc added by B3GNT2 in a dosage-dependent manner | Cell survival against T cell cytotoxicity, SW1417 [2]: reduced survival | Cell survival against T cell cytotoxicity, primary patient-derived pancreatic adenocarcinoma model [3]: reduced survival
